In patent US5672715A, “Herbicidal substituted 3-aryl-pyrazoles” (Monsanto Company, priority 1995, dated 1997):

Columns and labels:
Format in all cases: in vivo
Wheat [1] = assay: post-emergence herbicide test; details: Triticum aestivum, post-emergence, read-out: % plant inhibition; for inhibition at 200.072 g/ha: 0.1785 lb/A; for inhibition at 1000.92 g/ha: 0.893 lb/A; for inhibition at 5043.82 g/ha: 4.5 lb/A
Procedure, shortened: (§1)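 Plants were raised from seed in topsoil pans in the greenhouse and treated post-emergence at two to three weeks of age. Candidate chemical was applied in spray solution or suspension containing about 0.4% emulsifier at 1870 L/Ha. Activity recorded as percent inhibition.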

Cocklebur = assay: post-emergence herbicide test; details: Xanthium strumarium, post-emergence, read-out: % plant inhibition; for inhibition at 200.072 g/ha: 0.1785 lb/A; for inhibition at 1000.92 g/ha: 0.893 lb/A; for inhibition at 5043.82 g/ha: 4.5 lb/A
Procedure, shortened: as §1

Bedstraw Catchweed [2] = assay: post-emergence herbicide test; details: Galium aparine, post-emergence, read-out: % plant inhibition; for inhibition at 200.072 g/ha: 0.1785 lb/A; for inhibition at 1000.92 g/ha: 0.893 lb/A; for inhibition at 5043.82 g/ha: 4.5 lb/A
Procedure, shortened: as §1

Soybean = assay: post-emergence herbicide test; details: Glycine max, post-emergence, read-out: % plant inhibition; for inhibition at 200.072 g/ha: 0.1785 lb/A; for inhibition at 1000.92 g/ha: 0.893 lb/A; for inhibition at 5043.82 g/ha: 4.5 lb/A
Procedure, shortened: as §1

Barnyardgrass = assay: post-emergence herbicide test; details: Echinochloa crus-galli, post-emergence, read-out: % plant inhibition; for inhibition at 200.072 g/ha: 0.1785 lb/A; for inhibition at 1000.92 g/ha: 0.893 lb/A; for inhibition at 5043.82 g/ha: 4.5 lb/A
Procedure, shortened: as §1

Blackgrass = assay: pre-emergence herbicide test; details: Alopecurus myosuroides, pre-emergence, read-out: % plant inhibition; for inhibition at 200.072 g/ha: 0.1785 lb/A; for inhibition at 1000.92 g/ha: 0.893 lb/A; for inhibition at 5043.82 g/ha: 4.5 lb/A
Procedure, shortened: (§2)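 Herbicidal effect was assessed as percent inhibition about 14 days after sowing. A known amount of compound was added to the covering topsoil, and the pans were subirrigated in a greenhouse.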

Wheat [3] = assay: pre-emergence herbicide test; details: Triticum aestivum, pre-emergence, read-out: % plant inhibition; for inhibition at 200.072 g/ha: 0.1785 lb/A; for inhibition at 1000.92 g/ha: 0.893 lb/A; for inhibition at 5043.82 g/ha: 4.5 lb/A
Procedure, shortened: as §2

Common Chickweed = assay: pre-emergence herbicide test; details: pre-emergence, read-out: % plant inhibition; for inhibition at 200.072 g/ha: 0.1785 lb/A; for inhibition at 1000.92 g/ha: 0.893 lb/A; for inhibition at 5043.82 g/ha: 4.5 lb/A
Procedure, shortened: as §2

Bedstraw Catchweed [4] = assay: pre-emergence herbicide test; details: Galium aparine, pre-emergence, read-out: % plant inhibition; for inhibition at 200.072 g/ha: 0.1785 lb/A; for inhibition at 1000.92 g/ha: 0.893 lb/A; for inhibition at 5043.82 g/ha: 4.5 lb/A
Procedure, shortened: as §2

Compound | inhibition at 200.072 g/ha (Wheat [1]) | inhibition at 1000.92 g/ha (Wheat [1]) | inhibition at 5043.82 g/ha (Wheat [1]) | inhibition at 200.072 g/ha (Cocklebur) | inhibition at 1000.92 g/ha (Cocklebur) | inhibition at 5043.82 g/ha (Cocklebur) | inhibition at 200.072 g/ha (Bedstraw Catchweed [2]) | inhibition at 1000.92 g/ha (Bedstraw Catchweed [2]) | inhibition at 5043.82 g/ha (Bedstraw Catchweed [2]) | inhibition at 200.072 g/ha (Soybean) | inhibition at 1000.92 g/ha (Soybean) | inhibition at 5043.82 g/ha (Soybean) | inhibition at 200.072 g/ha (Barnyardgrass) | inhibition at 1000.92 g/ha (Barnyardgrass) | inhibition at 5043.82 g/ha (Barnyardgrass) | inhibition at 200.072 g/ha (Blackgrass) | inhibition at 1000.92 g/ha (Blackgrass) | inhibition at 5043.82 g/ha (Blackgrass) | inhibition at 200.072 g/ha (Wheat [3]) | inhibition at 1000.92 g/ha (Wheat [3]) | further results
Cc1c(-c2cc(F)ccc2F)nn(C)c1C(F)(F)F [Compound 1, 3-(2,5-Difluorophenyl)-1,4-dimethyl-5-(trifluoromethyl)-1H-pyrazole] | 0% | 0% | 10% | 0% | 0% | 0% | 0% | 0% | 30% | 0% | 0% | 0% | 0% | 0% | 0% | 0% | 0% | 15% | 0% | 0% | inhibition at 5043.82 g/ha (Wheat [3]): 10%; inhibition at 200.072 g/ha (Common Chickweed): 0%; inhibition at 1000.92 g/ha (Common Chickweed): 0%; inhibition at 5043.82 g/ha (Common Chickweed): 0%; inhibition at 200.072 g/ha (Bedstraw Catchweed [4]): 0%; inhibition at 1000.92 g/ha (Bedstraw Catchweed [4]): 0%; inhibition at 5043.82 g/ha (Bedstraw Catchweed [4]): 0%
Cn1nc(-c2cc(F)ccc2F)c(C=O)c1C(F)(F)F [Compound 34] | 0% | 0% | 10% | 0% | 0% | 25% | 0% | 0% | 80% | 0% | 10% | 15% | 0% | 0% | 10% | 0% | 0% | 25% | 0% | 0% | inhibition at 5043.82 g/ha (Wheat [3]): 5%; inhibition at 200.072 g/ha (Common Chickweed): 0%; inhibition at 1000.92 g/ha (Common Chickweed): 0%; inhibition at 5043.82 g/ha (Common Chickweed): 0%; inhibition at 200.072 g/ha (Bedstraw Catchweed [4]): 0%; inhibition at 1000.92 g/ha (Bedstraw Catchweed [4]): 0%; inhibition at 5043.82 g/ha (Bedstraw Catchweed [4]): 10%
